{"source": "patent US7691887B2", "about": "“Triazole derivatives which are SMO antagonists” (Merck Sharp & Dohme Corp., priority 2007, dated 2010)", "tested_on": "Hh pathway (Smo) in Shh-Light II cells", "experiment": "Shh-Light II Reporter Assay (firefly/Renilla luciferase)", "type": "cell-based", "settings": "Mus musculus; for pIC50: 3 uM Purmorphamine stimulation, 30 hrs", "description": "Shh-Light II Reporter Assay\nAssay designed to measure firefly and Renilla luciferase, in the same well.\nPrior to assay the Shh-Light II cells (ATCC Catalog No. CRL-2795) were cultured in growth media\nDay −1: seed 60,000 Shh-Light II cells in assay medium 75 uL/well, in presence of DMSO/inhibitor.\nDay 0: after overnight incubation at 37° C. 10% CO2 add 3 uM of Purmorphamine (Calbiochem 540220) in water.\nDay 1: After 30 hrs at 37° C. 10% CO2 of incubation develop the assay, directly to cells in growth medium. • Add 75 μl of DualGlow Luciferase Reagent (Promega, E2940) • Incubate 10 min. in the dark • Read plate at Luminometer: TopCount, by PerkinElmer • Add 75 ul of DualGlow Stop & Glow • Incubate 10 min. in the dark • Read plate at Luminometer: TopCount, by PerkinElmer. • Output is the ratio between FireFly/Renilla counts Growth Media: For Growth:\nDMEM: Dulbecco's Mod Eagle Medium with 0.11 G/L Pyr, with Pyridoxine. (GIBCO Cat No: 41966-029). The medium has complemented with 10% FCS (fetal bovine serum), 1% Penicillin-Streptomycin (10 mg/ml) (GIBCO, 15140-114) and 1% L-Glutamine 200 mM (100×) (GIBCO, 3042190) and 0.4 mg/ml of G418 (Roche) and 0.15 mg/ml Zeocyne (Invitrogen R-250-01). Cells cultured at 10% CO2.\nDMEM: Dulbecco's Mod Eagle Medium with 0.11 G/L Pyr, with Pyridoxine. (GIBCO Cat No: 21063-045), without Phenol Red. The medium has complemented with 2% FCS (fetal bovine serum), 1% Penicillin-Streptomycin (10 mg/ml) (GIBCO, 15140-114) and 1% L-Glutamine 200mM (100×) (GIBCO, 3042190). Cells cultured at 10% CO2. DMSO 0.25%.", "note": "pIC50: −log10 of the molar value."}
{"smiles": "Cn1c(-c2ccccc2C(F)(F)F)nnc1C12CCC(c3nnc(C(C)(F)F)o3)(CC1)CC2", "note": "[Example 4, 2-(1,1-Difluoroethyl)-5-(4-{4-methyl-5-[2-(trifluoromethyl)phenyl]-4H-1,2,4-triazol-3-yl}bicyclo[2.2.2]oct-1-yl)-1,3,4-oxadiazole]", "values": [{"measurement": "pIC50", "result": 5.03}]}
{"smiles": "Cn1c(-c2ccccc2C(F)(F)F)nnc1C12CCC(c3noc(C(C)(C)F)n3)(CC1)CC2", "note": "[Example 3, 5-(1-Fluoro-1-methylethyl)-3-(4-{4-methyl-5-[2-(trifluoromethyl)phenyl]-4H-1,2,4-triazol-3-yl}bicyclo[2.2.2]oct-1-yl)-1,2,4-oxadiazole]", "values": [{"measurement": "pIC50", "result": 5.38}]}
{"smiles": "Cn1c(-c2ccccc2C(F)(F)F)nnc1C12CCC(c3nnc(C4CC(F)(F)C4)o3)(CC1)CC2", "note": "[Example 5, 2-(3,3-Difluorocyclobutyl)-5-(4-{4-methyl-5-[2-(trifluoromethyl)phenyl]-4H-1,2,4-triazol-3-yl}bicyclo[2.2.2]oct-1-yl)-1,3,4-oxadiazole]", "values": [{"measurement": "pIC50", "result": 5.70}]}
{"smiles": "Cn1c(-c2ccccc2C(F)(F)F)nnc1C12CCC(c3noc(C4CC(F)(F)C4)n3)(CC1)CC2", "note": "[Example 2, 5-(3,3-Difluorocyclobutyl)-3-(4-{4-methyl-5-[2-(trifluoromethyl)phenyl]-4H-1,2,4-triazol-3-yl}bicyclo[2.2.2]oct-1-yl)-1,2,4-oxadiazole]", "values": [{"measurement": "pIC50", "result": 5.85}]}
{"smiles": "Cn1c(-c2ccccc2C(F)(F)F)nnc1C12CCC(c3noc(C(C)(F)F)n3)(CC1)CC2", "note": "[Example 1, 5-(1,1-Difluoroethyl)-3-(4-{4-methyl-5-[2-(trifluoromethyl)phenyl]-4H-1,2,4-triazol-3-yl}bicyclo[2.2.2]oct-1-yl)-1,2,4-oxadiazole]", "values": [{"measurement": "inhibition at 5 µM", "setting": "5 μM compound", "result": 35, "unit": "%"}]}
